Test results taken from ChEMBL document CHEMBL1201862, “PubChem BioAssay data set” (2004).
Active and inactive are the calls of the source.

Assays:
[1] = molecular target: 26S proteasome non-ATPase regulatory subunit 14 (Homo sapiens, UniProt O00487); assay: inhibition of proteasome subunit RPN11 – biochemical, fluorescence polarization, uHTS hits, confirmation (AID 602368); assay type: functional
[2] = molecular target: 72 kDa type IV collagenase (Homo sapiens, UniProt P08253); assay: Dose Response validation of uHTS RPN11 inhibitor hits using a MMP-2 Fluorescence assay.; assay type: functional
Sequence of 72 kDa type IV collagenase (P08253 whole entry): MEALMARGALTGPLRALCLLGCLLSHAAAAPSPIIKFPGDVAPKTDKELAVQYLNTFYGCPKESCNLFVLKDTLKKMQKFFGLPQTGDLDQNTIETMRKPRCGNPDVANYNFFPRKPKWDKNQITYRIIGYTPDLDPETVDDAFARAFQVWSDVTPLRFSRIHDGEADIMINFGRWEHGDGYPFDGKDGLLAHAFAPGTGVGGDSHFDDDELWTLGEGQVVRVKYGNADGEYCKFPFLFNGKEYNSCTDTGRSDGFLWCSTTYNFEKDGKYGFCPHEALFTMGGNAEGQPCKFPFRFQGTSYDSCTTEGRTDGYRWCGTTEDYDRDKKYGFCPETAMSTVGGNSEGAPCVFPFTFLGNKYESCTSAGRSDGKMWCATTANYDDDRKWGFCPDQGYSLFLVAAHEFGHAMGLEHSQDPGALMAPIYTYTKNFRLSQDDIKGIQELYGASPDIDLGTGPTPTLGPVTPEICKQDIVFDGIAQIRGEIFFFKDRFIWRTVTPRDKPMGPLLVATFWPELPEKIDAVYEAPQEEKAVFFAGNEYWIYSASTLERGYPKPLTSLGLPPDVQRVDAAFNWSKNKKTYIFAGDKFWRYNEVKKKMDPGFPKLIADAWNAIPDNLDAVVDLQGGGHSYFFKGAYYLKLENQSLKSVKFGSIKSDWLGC

[3] = molecular target: Prothrombin (Bos taurus, UniProt P00735); assay: thrombin inhibition, dose response, biochemical, fluorescence polarization, uHTS hits (AID 602369); assay type: functional
[4] = molecular target: T1, High affinity choline transporter 1 (Homo sapiens, UniProt Q9GZV3); assay: CHT inhibitors, dose response, cell-based, 5-point CRC, membrane potential dye (AID 504840); assay type: functional
T1 sequence (Q9GZV3 whole entry): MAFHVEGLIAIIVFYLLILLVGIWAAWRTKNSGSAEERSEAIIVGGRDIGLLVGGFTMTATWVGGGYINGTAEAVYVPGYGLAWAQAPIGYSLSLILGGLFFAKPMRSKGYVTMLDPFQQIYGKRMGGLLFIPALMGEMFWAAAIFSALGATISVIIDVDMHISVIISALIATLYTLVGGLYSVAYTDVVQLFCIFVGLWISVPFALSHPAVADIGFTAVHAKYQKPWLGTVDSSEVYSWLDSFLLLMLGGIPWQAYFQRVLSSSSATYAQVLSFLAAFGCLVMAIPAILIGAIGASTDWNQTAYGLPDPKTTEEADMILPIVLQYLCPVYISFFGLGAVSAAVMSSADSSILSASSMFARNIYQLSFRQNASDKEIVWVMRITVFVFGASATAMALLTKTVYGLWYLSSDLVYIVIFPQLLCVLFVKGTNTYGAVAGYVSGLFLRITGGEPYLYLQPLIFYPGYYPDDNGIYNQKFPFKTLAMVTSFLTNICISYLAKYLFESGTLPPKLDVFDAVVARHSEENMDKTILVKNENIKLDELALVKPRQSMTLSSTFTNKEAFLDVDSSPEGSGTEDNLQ

[5] = molecular target: T2, Short transient receptor potential channel 4 (Mus musculus, UniProt Q9QUQ5); assay: mouse TRPC4 channel activators, dose response, cell-based, HEK293 TRPC4/mu-opioid, Fluo-4 calcium (AID 434937); assay type: functional
T2 sequence (Q9QUQ5 whole entry): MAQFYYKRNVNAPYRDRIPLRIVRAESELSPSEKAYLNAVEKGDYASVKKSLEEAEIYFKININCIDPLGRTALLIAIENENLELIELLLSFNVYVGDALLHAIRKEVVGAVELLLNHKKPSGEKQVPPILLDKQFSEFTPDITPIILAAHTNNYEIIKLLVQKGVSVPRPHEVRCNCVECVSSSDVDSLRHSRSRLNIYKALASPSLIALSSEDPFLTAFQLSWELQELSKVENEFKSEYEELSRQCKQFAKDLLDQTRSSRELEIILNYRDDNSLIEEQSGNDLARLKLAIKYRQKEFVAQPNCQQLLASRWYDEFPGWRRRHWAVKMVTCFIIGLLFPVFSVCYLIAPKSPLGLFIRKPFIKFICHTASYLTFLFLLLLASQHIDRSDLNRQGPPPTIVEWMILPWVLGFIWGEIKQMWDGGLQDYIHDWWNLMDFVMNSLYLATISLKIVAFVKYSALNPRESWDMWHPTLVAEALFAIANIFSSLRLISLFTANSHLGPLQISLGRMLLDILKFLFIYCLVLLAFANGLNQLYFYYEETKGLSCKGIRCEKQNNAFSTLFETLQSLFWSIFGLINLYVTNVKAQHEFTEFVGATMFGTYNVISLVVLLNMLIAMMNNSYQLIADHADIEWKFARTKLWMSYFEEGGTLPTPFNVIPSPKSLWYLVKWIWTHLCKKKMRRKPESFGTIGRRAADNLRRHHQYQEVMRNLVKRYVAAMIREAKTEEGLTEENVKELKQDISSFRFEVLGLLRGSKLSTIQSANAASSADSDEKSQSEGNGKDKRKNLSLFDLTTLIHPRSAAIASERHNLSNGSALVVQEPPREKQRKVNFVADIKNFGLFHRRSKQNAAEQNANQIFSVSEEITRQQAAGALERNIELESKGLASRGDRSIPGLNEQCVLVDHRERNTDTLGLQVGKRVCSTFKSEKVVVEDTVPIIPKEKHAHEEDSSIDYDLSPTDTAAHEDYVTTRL

[6] = molecular target: Dual specificity tyrosine-phosphorylation-regulated kinase 1A (Rattus norvegicus, UniProt Q63470); assay type: biochemical, Homo sapiens
[7] = molecular target: Melanocortin receptor 4 (Homo sapiens, UniProt P32245); assay type: functional, cell-based;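 also: Cell-based assay with luminescence read-out, confirmatory dose-response testing for agonist activity of biased ligands at MC4R; human U2OS cells with tagged receptor and beta-arrestin; potency of agonists that increase receptor coupling to beta-arrestin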
Sequence of Melanocortin receptor 4 (P32245 whole entry): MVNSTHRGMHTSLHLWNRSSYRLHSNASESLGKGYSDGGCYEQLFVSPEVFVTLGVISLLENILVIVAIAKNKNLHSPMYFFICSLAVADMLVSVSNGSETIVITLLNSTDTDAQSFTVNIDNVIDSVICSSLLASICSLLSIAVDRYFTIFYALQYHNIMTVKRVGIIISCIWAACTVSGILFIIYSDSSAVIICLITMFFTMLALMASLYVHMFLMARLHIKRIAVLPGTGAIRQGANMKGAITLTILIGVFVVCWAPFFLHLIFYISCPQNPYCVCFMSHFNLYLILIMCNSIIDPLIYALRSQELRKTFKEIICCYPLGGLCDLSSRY

[8] = molecular target: Eukaryotic translation initiation factor 4E (Mus musculus, UniProt P63073); assay: eIF4E–eIF4G protein interaction inhibitors, dose response, biochemical, TR-FRET (AID 855); assay type: functional;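 also: potency for disrupting eIF4E binding to eIF4GI seen as loss of FRET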
Sequence of Eukaryotic translation initiation factor 4E (P63073 whole entry): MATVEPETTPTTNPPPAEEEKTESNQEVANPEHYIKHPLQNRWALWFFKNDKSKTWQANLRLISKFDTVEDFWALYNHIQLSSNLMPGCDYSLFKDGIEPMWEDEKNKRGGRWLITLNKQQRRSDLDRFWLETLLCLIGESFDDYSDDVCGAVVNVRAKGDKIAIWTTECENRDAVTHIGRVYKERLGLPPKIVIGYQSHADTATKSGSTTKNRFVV

[9] = system: Streptococcus; assay: Group A Streptococcus viability loss, dose response, counter-screen for streptokinase expression inhibitor project, luminescence, BacTiterGlo (AID 1915); assay type: functional, organism-based; conditions: Streptococcus;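 also: potency for reduction of bacterial viability or growth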
[10] = molecular target: T3, Streptokinase A (Streptococcus pyogenes serotype M1, UniProt P10520); assay: S. pyogenes streptokinase expression inhibitors, potency, dose response, plasminogen activation absorbance, OD405 (AID 1914); assay type: functional, Streptococcus pyogenes M1 GAS;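 also: secreted streptokinase activity via plasminogen activation per viability signal from cell pellet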
T3 sequence (P10520 whole entry): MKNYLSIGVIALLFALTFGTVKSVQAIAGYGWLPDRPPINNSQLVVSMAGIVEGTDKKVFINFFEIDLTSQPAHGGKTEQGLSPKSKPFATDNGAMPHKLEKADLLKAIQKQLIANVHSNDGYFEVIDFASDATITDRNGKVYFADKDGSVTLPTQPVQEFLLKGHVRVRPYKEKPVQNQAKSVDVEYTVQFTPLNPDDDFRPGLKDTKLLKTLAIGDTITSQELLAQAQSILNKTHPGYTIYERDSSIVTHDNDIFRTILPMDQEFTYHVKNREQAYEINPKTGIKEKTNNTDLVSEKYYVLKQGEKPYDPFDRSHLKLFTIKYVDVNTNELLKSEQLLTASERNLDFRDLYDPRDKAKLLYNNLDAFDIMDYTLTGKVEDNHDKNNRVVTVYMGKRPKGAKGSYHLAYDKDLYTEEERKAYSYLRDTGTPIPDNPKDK

[11] = system: Streptococcus sp. 'group A'; assay: growth inhibition of control SK(-) GAS strain, dose response, counter-screen for streptokinase expression inhibitor project, luminescence, kanamycin, BacTiterGlo, confirmation (AID 1900); assay type: functional, organism-based; conditions: Streptococcus sp. 'group A'
[12] = molecular target: T4, Long-chain-fatty-acid--AMP ligase FadD28 (Mycobacterium tuberculosis, UniProt P9WQ59); assay: Fluorescence polarization aasay to screen for inhibitors that compete for the binding of FadD28 to a bisubstrate Measured in Biochemical System Using Plate Reader - 2147-01_Inhibitor_Dose_CherryPick_Activity.; assay type: functional, Mycobacterium tuberculosis H37Rv
T4 sequence (P9WQ59 whole entry): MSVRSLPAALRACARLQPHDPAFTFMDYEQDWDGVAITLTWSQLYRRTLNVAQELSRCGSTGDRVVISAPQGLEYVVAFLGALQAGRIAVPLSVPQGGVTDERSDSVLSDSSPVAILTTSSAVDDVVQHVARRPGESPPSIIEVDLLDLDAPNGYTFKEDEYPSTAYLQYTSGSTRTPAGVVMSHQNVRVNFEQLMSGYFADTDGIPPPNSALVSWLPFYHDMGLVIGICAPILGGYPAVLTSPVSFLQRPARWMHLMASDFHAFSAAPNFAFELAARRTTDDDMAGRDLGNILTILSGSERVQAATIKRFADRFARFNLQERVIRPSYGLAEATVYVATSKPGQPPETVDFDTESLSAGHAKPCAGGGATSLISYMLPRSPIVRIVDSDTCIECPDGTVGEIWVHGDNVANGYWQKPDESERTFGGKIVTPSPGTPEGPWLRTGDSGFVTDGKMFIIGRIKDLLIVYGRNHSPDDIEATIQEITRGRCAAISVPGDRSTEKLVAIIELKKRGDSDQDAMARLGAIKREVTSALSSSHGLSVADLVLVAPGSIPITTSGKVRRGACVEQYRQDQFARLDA

[13] = molecular target: T5, Adenosylmethionine-8-amino-7-oxononanoate aminotransferase (Mycobacterium tuberculosis, UniProt P9WQ81); assay: Mycobacterium tuberculosis BioA enzyme inhibitor Measured in Biochemical System Using Plate Reader - 2163-02_Inhibitor_Dose_CherryPick_Activity.; assay type: functional, Mycobacterium tuberculosis UT205
T5 sequence (P9WQ81 whole entry): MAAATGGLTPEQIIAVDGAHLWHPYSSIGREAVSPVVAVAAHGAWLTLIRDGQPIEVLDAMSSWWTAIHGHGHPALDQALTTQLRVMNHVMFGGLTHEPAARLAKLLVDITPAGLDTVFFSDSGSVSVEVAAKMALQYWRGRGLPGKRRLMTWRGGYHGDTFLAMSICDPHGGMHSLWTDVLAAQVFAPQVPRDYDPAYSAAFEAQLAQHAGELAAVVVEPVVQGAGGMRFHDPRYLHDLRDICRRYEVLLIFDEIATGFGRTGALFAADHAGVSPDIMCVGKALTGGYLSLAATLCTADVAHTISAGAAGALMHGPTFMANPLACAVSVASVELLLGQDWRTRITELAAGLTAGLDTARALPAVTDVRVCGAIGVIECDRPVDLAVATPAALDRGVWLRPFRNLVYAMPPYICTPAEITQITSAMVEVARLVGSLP

[14] = cells; assay type: functional, cell-based
[15] = cells; assay type: functional, cell-based; remark: listed apart in the source
[16] = molecular target: SUMO-activating enzyme (Homo sapiens, UniProt Q9UBT2); assay: SUMOylation inhibitor hit validation, confirmation, SUMOylation inhibitor project, biochemical, AlphaScreen (AID 2018); assay type: functional
Sequence of SUMO-activating enzyme (Q9UBE0 whole entry): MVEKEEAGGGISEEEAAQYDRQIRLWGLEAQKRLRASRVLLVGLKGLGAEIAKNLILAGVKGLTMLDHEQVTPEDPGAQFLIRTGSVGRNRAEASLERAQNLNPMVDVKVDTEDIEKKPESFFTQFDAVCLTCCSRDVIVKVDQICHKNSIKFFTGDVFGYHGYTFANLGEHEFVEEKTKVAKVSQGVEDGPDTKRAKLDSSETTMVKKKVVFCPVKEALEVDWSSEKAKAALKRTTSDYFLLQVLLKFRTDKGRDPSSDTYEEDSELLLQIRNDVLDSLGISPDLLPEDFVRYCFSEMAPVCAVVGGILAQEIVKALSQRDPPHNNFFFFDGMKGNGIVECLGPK
Sequence of SUMO-activating enzyme (Q9UBT2 whole entry): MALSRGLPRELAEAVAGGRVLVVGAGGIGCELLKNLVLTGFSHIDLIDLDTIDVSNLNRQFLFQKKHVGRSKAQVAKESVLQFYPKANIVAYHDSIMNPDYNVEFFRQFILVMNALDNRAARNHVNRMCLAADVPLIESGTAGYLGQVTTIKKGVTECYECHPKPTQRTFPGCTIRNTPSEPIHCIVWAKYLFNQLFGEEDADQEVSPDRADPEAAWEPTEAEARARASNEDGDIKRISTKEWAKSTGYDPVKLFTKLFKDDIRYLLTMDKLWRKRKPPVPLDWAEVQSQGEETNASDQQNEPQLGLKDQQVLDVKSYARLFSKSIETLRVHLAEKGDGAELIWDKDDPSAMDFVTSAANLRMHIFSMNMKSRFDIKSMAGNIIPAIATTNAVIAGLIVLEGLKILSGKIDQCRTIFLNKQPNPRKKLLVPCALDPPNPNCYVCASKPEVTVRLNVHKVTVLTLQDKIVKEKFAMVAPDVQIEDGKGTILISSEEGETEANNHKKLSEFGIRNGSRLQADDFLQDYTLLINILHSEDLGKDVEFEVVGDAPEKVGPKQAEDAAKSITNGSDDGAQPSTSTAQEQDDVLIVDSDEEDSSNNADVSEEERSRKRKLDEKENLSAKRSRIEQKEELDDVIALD

[17] = cells; assay type: functional
[18] = AlphaScreen signal interference compounds, dose response, artefact control for ARNT-TACC3 interaction inhibitor project, biochemical, luminescence, cherry-pick (AID 651705); assay type: functional;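 also: AlphaScreen bead proximity signal that flags compounds interfering with the detection technology; potency reflects signal decrease which marks the compound as an assay artifact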
[19] = molecular target: FAD-linked sulfhydryl oxidase ALR (Homo sapiens, UniProt P55789); assay: inhibitors of human ALR sulfhydryl oxidase, dose response, biochemical, H2O2 detection, luminescence, cherry-pick (AID 493248)
Sequence of FAD-linked sulfhydryl oxidase ALR (P55789 whole entry): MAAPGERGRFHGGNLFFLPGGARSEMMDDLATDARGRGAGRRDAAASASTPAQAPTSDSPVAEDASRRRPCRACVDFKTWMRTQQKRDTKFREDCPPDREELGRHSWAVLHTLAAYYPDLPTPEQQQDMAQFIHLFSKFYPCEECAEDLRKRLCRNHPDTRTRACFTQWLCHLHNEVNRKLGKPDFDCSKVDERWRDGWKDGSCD

Sequence of 26S proteasome non-ATPase regulatory subunit 14 (O00487 whole entry): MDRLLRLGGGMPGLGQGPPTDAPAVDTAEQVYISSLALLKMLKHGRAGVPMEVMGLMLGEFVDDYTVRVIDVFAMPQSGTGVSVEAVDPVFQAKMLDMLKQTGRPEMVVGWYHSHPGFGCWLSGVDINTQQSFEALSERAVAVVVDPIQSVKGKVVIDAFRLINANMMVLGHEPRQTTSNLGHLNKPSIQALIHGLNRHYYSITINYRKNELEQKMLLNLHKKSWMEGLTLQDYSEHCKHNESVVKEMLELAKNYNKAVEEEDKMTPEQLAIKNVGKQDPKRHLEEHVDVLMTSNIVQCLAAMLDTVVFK

## C(=C\c1ccco1)/C1=NN(c2ccccc2)C(c2ccco2)C1 (stereo not given)
[1]
  IC50: 22.8 µM (active)
[2]
  IC50: > 100 µM (inactive)
[3]
  IC50: 14.8 µM (active)

## CCn1cc(CNC(=O)c2cc(COc3ccc(F)cc3F)on2)cn1
[4]
  IC50: 18.2 µM (active)

## COc1ccc(C(CNCC(=O)Nc2ccccc2F)N(C)C)cc1 (stereo not given)
[5]
  EC50: 0.133 µM (active)

## COc1ccc2cc(-c3cccnc3)ncc2c1
[6]
  AC50: 6.39 µM (active)

## CCn1c(SCC(=O)Nc2ccc(C(C)=O)cc2)nc2nc3c(cc2c1=O)CCCC3
[7]
  EC50: > 89.2 µM (inactive)
[8]
  IC50: > 64 µM (inactive)

## CCc1c(O)n(C2CCCCC2)c(SCC(=O)Nc2nc3ccccc3s2)nc1=O
[9]
  EC50: 122 µM (active)
[10]
  EC50: 17.1 µM (active)
[11]
  EC50: 11.8 µM (active)
[12]
  AC50: 29 µM (active)

## O=C(CSc1nc2cc(C(=O)O)ccc2c(=O)n1-c1ccc(F)cc1)Nc1ccc(F)c(F)c1F
[13]
  AC50: 2.65 µM (active)

## CN1c2ccc(-c3ccccc3)cc2[C@H]2[C@H](CCN2C(=O)Cc2ccccn2)[C@H]1CO
[13]
  AC50: 6.13 µM (active)

## Fc1ccc(-c2nnc(CN3CCN(c4ncc(C(F)(F)F)cc4Cl)CC3)o2)cc1
[5]
  EC50: 5.31 µM (active)

## Cc1cc(C)cc(-n2cccc2/C=C2/C(=N)N3C(=NC2=O)SN=C3S(C)(=O)=O)c1
[1]
  IC50: 37.6 µM (active)
[2]
  IC50: 81.6 µM (active)
[3]
  IC50: 74.6 µM (active)

## CC(=O)c1cccc(OCC(O)CNCCc2ccc(Cl)cc2)c1 (stereo not given)
[14]
  EC50: > 29.9 µM (inactive)
[15]
  IC50: > 29.9 µM (inactive)

## COc1ccccc1NC(=O)c1sc2ncn(CC(=O)Nc3ccccc3)c(=O)c2c1C
[16]
  IC50: 20.4 µM (active)

## CCCCNC(=O)c1ccc2c(OCC)n(CCCC)nc2c1
[4]
  IC50: 13.1 µM (active)

## COc1ccccc1NC(=O)Nc1nc(C(N)Cc2ccc(Cl)cc2)cs1 (stereo not given)
[7]
  EC50: > 89.2 µM (inactive)

## Cc1ccc2cc3c(NS(=O)(=O)c4cccc5nonc45)nn(CC(C)C)c3nc2c1
[4]
  IC50: 13.8 µM (active)

## Fc1ccc(C2CCNCC2COc2ccc3c(c2)OCO3)cc1 (stereo not given)
[5]
  EC50: 10.6 µM (active)

## CC(Oc1ccccc1)C(=O)OCC(=O)N1CC(=O)Nc2ccccc21 (stereo not given)
[12]
  AC50: > 100 µM (inactive)

## Clc1cccc(-c2ccc(CNCc3ccccn3)o2)c1
[17]
  IC50: 3.05 µM (active)
[18]
  AC50: 94.4 µM (active)

## Cc1ccc(-n2cccc2/C=C2/C(=N)N3C(=NC2=O)SN=C3S(C)(=O)=O)cc1
[1]
  IC50: 26.2 µM (active)
[2]
  IC50: > 100 µM (inactive)
[3]
  IC50: 86.9 µM (active)
[19]
  AC50: 0.598 µM (active)

## CC1(C)Oc2ccc3ccc(=O)oc3c2C(/C=N/c2ccc(O)cc2)=C1O
[7]
  EC50: > 89.2 µM (inactive)

## O=c1[nH]c(N2CCN(Cc3ccc4c(c3)OCO4)CC2)nc2c1CCC2
[13]
  AC50: 0.93 µM (active)

## CN1CCN(c2ccc(C(F)(F)F)cc2NC(=O)Nc2ccccc2)CC1
[5]
  EC50: 4.73 µM (active)
